In patent US20240293513A1, “USE OF MAZDUTIDE” (INNOVENT BIOLOGICS (SUZHOU) CO., LTD., priority 2021, published 2024):

Columns and labels:
[1] = Solubility of the investigational product; format: physicochemical; settings: 20 mM tris(hydroxymethyl)aminomethane solutions and 150 mM NaCl solutions with pH 8.0
healthy subjects = experiment: Single dose study in healthy subjects (18P-MC-OXAA), safety and tolerability; format: in vivo, human
Description: In another aspect of the present invention, provided is a pharmaceutical composition for reducing a uric acid level in a patient, comprising a compound of formula (I) or a pharmaceutically acceptable salt thereof, and at least one pharmaceutically acceptable carrier.
A single dose study in healthy subjects (18P-MC-OXAA): a single center, double-blind, randomized, placebo-controlled SAD study has been completed (ascending doses of 0.03 mg, 0.1 mg, 0.3 mg, 1.0 mg, 2.5 mg, and 5.0 mg), which mainly assessed the safety, tolerability, and PK/PD profile of mazdutide in healthy subjects.

[2] = test system: patients with obesity or overweight; experiment: Safety assessment in patients with obesity or overweight (12-week dose escalation); format: in vivo, human
Description: (§1) Mazdutide and placebo were both administered subcutaneously once weekly. The doses were prepared and administered by study nurses according to the manual instructions of the study drugs. • 1.5 Inclusion criteria
I. Subjects with obesity or overweight meeting all of the following criteria were included in the study: • 1. Aged 18-75 years (inclusive), male or female: • 2. For obesity, BMI≥28.0 kg/m^2: for overweight, 24≤ BMI<28.0 kg/m^2 with at least one of the following: i, increased appetite, intolerable hunger before meals, and increased food consumption: ii, comorbidity with one or more of pre-diabetes (impaired fasting glucose and/or impaired glucose tolerance), hypertension, dyslipidemia (see appendix 4 for reference criteria), and fatty liver (within 6 months before the screening); iii, comorbidity with weight-bearing joint pain: iv, obesity-related dyspnea or obstructive sleep apnea syndrome: • 3. Weight change<5% after at least 12 weeks of diet/exercise weight control at the time of screening
In this study, the enrollment of 36 patients with overweight or obesity having a weight change of less than 5% after at least 12 weeks of diet/exercise control was planned. Three cohorts were included in this double-blind study: cohort 1 (n=12), cohort 2 (n=12), and cohort 3 (n=12). Subjects in each cohort were randomized in a 2:1 ratio into the mazdutide treatment group (n=8) and the placebo group (n=4). The subcutaneous dosing regimens for mazdutide or placebo in cohort 1, cohort 2 and cohort 3, are described below (as shown in FIG. 1):
(§2) Cohort 1: Subjects were administered with a starting dose of 1.0 mg once weekly for 4 weeks. If the treatment was well tolerated*, the dose was adjusted to 2.0 mg, and was administered once weekly for 4 weeks. If the treatment was well tolerated*, the dose was adjusted to 3.0 mg, and was administered once weekly for 4 weeks. (ascending at a rate of 1 mg/4 weeks to the target dose).
Cohort 2: Subjects were administered with a starting dose of 1.5 mg once weekly for 4 weeks. If the treatment was well tolerated*, the dose was adjusted to 3.0 mg, and was administered once weekly for 4 weeks. If the treatment was well tolerated*, the dose was adjusted to 4.5 mg, and was administered once weekly for 4 weeks (ascending at a rate of 1.5 mg/4 weeks to the target dose).
Cohort 3: Treatment in cohort 3 was started when the 4-week treatment at 1.5 mg was completed and well tolerated in the subjects in cohort 2: if 1.5 mg was not tolerated in cohort 2, 2.0 mg and higher doses were not investigated in cohort 3. In this cohort, subjects were administered with a starting dose of 2.0 mg once weekly for 4 weeks. If the treatment was well tolerated*, the dose was adjusted to 4.0 mg, and was administered once weekly for 4 weeks. If the treatment was well tolerated*, the dose was adjusted to 6.0 mg, and was administered once weekly for 4 weeks. (ascending at a rate of 2 mg/4 weeks to the target dose).
For patients with obesity or overweight: By Mar. 15, 2021, 36 subjects were enrolled and 36 were included in the analysis. […] Only 2 patients in cohort 1 had mild urticaria. […] The gastrointestinal events occurred at a higher rate in the treatment group than in the placebo group, which complies with the mechanism of action of the drug.

[3] = Stability of the drug substance; format: physicochemical; settings: ≤−20° C.
patients with diabetes = experiment: Safety assessment in patients with type 2 diabetes (12-week dose escalation); format: in vivo, human
Description: as §1
(§3) In this study, the enrollment of 42 patients with type 2 diabetes with uncontrolled glycosylated hemoglobin despite at least 2 months of lifestyle intervention or treatment with a stable dose of metformin (≥1000 mg/day or the maximum tolerated dose). Three cohorts were included in this study: cohort 1 (n=14), cohort 2 (n=14), and cohort 3 (n=14). Subjects in each cohort were randomized in an 8:4:2 ratio into the mazdutide treatment group (n=8), the placebo group (n=4), and the dulaglutide 1.5 mg treatment group (n=2). In cohorts 1, 2, and 3, the active control drug, dulaglutide, was administered at 1.5 mg QW for 12 weeks, and the dosing regimens for mazdutide and placebo are described below:
as §2
(§4) Cohort 2: Subjects were administered with a starting dose of 1.5 mg once weekly for 4 weeks.
If the treatment was well tolerated*, the dose was adjusted to 3.0 mg, and was administered once weekly for 4 weeks. If 3.0 mg was not well tolerated but still met the tolerance criteria, the next dose was investigated in cohort 2 (backup 1): if the dose was well tolerated, the study proceeded to 4.5 mg. The treatment was given once weekly for 4 weeks, if 4.5 mg was not well tolerated but still met the tolerance criteria, the next dose was investigated in cohort 2 (backup 2). (ascending at a rate of 1.5 mg/4 weeks to the target dose).
Cohort 2 (backup 2): If 4.5 mg was not tolerated, the treatment should be discontinued for 1 week and resumed at the dose of 3.75 mg for 2 weeks until the end of study. […]

uric acid = experiment: Change in uric acid from baseline in subjects with type 2 diabetes; format: in vivo, human; settings: 1.5 mg QW for 12 weeks, day 85 post-dose vs baseline, N = 6
Description: FIG. 3 illustrates the change in uric acid from baseline after administration in subjects with diabetes.
as §3, §2, §4
If the treatment was well tolerated*, the dose was adjusted to 3.0 mg, and was administered once weekly for 4 weeks. […]

CC(C)C[C@H](NC(=O)[C@H](CC(C)C)NC(=O)[C@H](Cc1c[nH]c2ccccc12)NC(=O)[C@H](CCC(=O)O)NC(=O)[C@@H](NC(=O)[C@H](Cc1ccccc1)NC(=O)[C@H](CCC(=O)O)NC(=O)[C@H](CCCCNC(=O)COCCOCCNC(=O)COCCOCCNC(=O)CC[C@H](NC(=O)CCCCCCCCCCCCCCCCCCC(=O)O)C(=O)O)NC(=O)[C@H](C)NC(=O)[C@H](CCCCN)NC(=O)[C@H](CCCCN)NC(=O)[C@H](CCC(=O)O)NC(=O)[C@H](CC(=O)O)NC(=O)[C@H](CC(C)C)NC(=O)[C@H](Cc1ccc(O)cc1)NC(=O)[C@H](CCCCN)NC(=O)[C@H](CO)NC(=O)[C@H](Cc1ccc(O)cc1)NC(=O)[C@H](CC(=O)O)NC(=O)[C@H](CO)NC(=O)[C@@H](NC(=O)[C@H](Cc1ccccc1)NC(=O)[C@@H](NC(=O)CNC(=O)[C@H](CCC(N)=O)NC(=O)C(C)(C)NC(=O)[C@@H](N)Cc1c[nH]cn1)[C@@H](C)O)[C@@H](C)O)C(C)C)C(=O)N[C@@H](CCC(=O)O)C(=O)NCC(=O)NCC(=O)N1CCC[C@H]1C(=O)N[C@@H](CO)C(=O)N[C@@H](CO)C(=O)NCC(N)=O [mazdutide]
solubility [1]: ≥ 10000 µg/mL | tolerability (healthy subjects; healthy subjects, dose ascended to 2.5 mg): tolerated | subjects with gastrointestinal-related AEs (mainly nausea and vomiting) (healthy subjects; healthy subjects, dose ascended to 5 mg): 6 subjects | maximum tolerated dose (MTD) for single-dose administration (healthy subjects; healthy subjects, single ascending doses 0.03-5.0 mg): 2.5 mg | safety and tolerability (healthy subjects; single-dose and multi-dose escalation studies in healthy populations): good safety and tolerability | SAEs [2]: no SAEs | acute pancreatitis [2]: no acute pancreatitis | discontinuation or withdrawal due to AEs [2]: no discontinuation or withdrawal due to AEs | dose escalation termination-related AEs [2]: no dose escalation termination-related AEs | hypoglycemia events [2]: no hypoglycemia events | severe adverse events [2]: no severe adverse events | patients with mild urticaria ([2]; cohort 1 (1 mg-2 mg-3 mg)): 2 patients | overall safety and tolerance ([2]; sc once weekly, 12 weeks): good overall safety and tolerance | anorexia rate of occurrence ([2]; treatment group): 29.2% | diarrhea rate of occurrence ([2]; treatment group): 25% | nausea rate of occurrence ([2]; treatment group): 16.7% | Gastrointestinal adverse events rate ([2]; treatment group, 15/24 cases): 62.5% | average heart rate ([2]; versus placebo group): increase in average heart rate over the placebo group | Stability [3]: The drug substance is stable at ≤−20 °C | acute pancreatitis, severe hypoglycemia, allergic reaction or injection site reaction (patients with diabetes): no acute pancreatitis, severe hypoglycemia, allergic reaction or injection site reaction | dose escalation termination-related AEs (patients with diabetes): no dose escalation termination-related AEs | overall safety and tolerance (patients with diabetes; sc once weekly, 12 weeks): good overall safety and tolerance

Dulaglutide
Uric acid Mean of change (uric acid): 16.67 µmol/L
